# Data published in US12599136B2, “Substituted isophthalic acid diamides and their use as herbicides” (Bayer Aktiengesellschaft, priority 2020, dated 2026).
# Legend:
# Type in all cases: in vivo
# [1] = system: Amaranthus retroflexus; test: Pre-emergence herbicidal action against AMARE; conditions: visual score after 3 weeks vs untreated controls
# In short: (§1)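 Sandy loam pots, seeds covered with soil, then surface-treated with WP or EC formulations at 600–800 l/ha water plus 0.2% wetting agent. Greenhouse, 3 weeks. Percent damage vs untreated controls.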
# [2] = system: Alopecurus myosuroides; test: Post-emergence herbicidal action against ALOMY
# In short: (§2)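 Visual % rating (0% = as untreated, 100% = dead) ~3 wk after spraying one-leaf-stage plants grown in sandy loam; WP/EC in water at 600–800 l/ha, 0.2% wetting agent.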
# [3] = system: Avena fatua; test: Post-emergence herbicidal action against AVEFA; conditions: visual assessment about 3 weeks after treatment
# In short: as §2
# [4] = system: Cyperus esculentus; test: Pre-emergence herbicidal action against CYPES; conditions: visual score after 3 weeks vs untreated controls
# Source text: (§3) Seeds of monocotyledonous and dicotyledonous weed plants and crop plants are laid out in sandy loam soil in wood-fiber pots and covered with soil. The compounds of the invention, formulated in the form of wettable powders (WP) or as emulsion concentrates (EC), are then applied to the surface of the covering soil in the form of an aqueous suspension or emulsion at a water application rate equivalent to 600 to 800 l/ha, with addition of 0.2% wetting agent. After the treatment, the pots are placed in a greenhouse and kept under good growth conditions for the trial plants. The damage to the test plants is scored visually after a test period of 3 weeks by comparison with untreated controls (herbicidal activity in percent (%): 100% activity=the plants have died, 0% activity=like control plants). […] The tables below illustrate, in an illustrative manner, the post-emergence herbicidal action of the compounds of the invention, the herbicidal activity being stated in percent.
# [5] = system: Stellaria media; test: Pre-emergence herbicidal action against STEME
# Source text: as §3
# [6] = system: Amaranthus retroflexus; test: Post-emergence herbicidal action against AMARE; conditions: visual assessment about 3 weeks after treatment
# In short: as §2
# [7] = system: Echinochloa crus-galli; test: Pre-emergence herbicidal action against ECHCG; conditions: visual score after 3 weeks vs untreated controls
# In short: as §1
# [8] = system: Abutilon theophrasti; test: Post-emergence herbicidal action against ABUTH
# In short: as §2
# [9] = system: Veronica persica; test: Post-emergence herbicidal action against VERPE; conditions: visual assessment about 3 weeks after treatment
# In short: as §2
# [10] = system: Pharbitis purpurea; test: Pre-emergence herbicidal action against PHBPU; conditions: visual score after 3 weeks vs untreated controls
# Source text: as §3
# [11] = system: Alopecurus myosuroides; test: Pre-emergence herbicidal action against ALOMY; conditions: visual score after 3 weeks vs untreated controls
# In short: as §1
# [12] = system: Matricaria inodora; test: Pre-emergence herbicidal action against MATIN; conditions: visual score after 3 weeks vs untreated controls
# In short: as §1
# [13] = system: Lolium rigidum; test: Pre-emergence herbicidal action against LOLRI
# In short: as §1
# [14] = system: Matricaria inodora; test: Post-emergence herbicidal action against MATIN; conditions: visual assessment about 3 weeks after treatment
# In short: as §2
# [15] = system: Setaria viridis; test: Pre-emergence herbicidal action against SETVI
# In short: as §1
# [16] = system: Setaria viridis; test: Post-emergence herbicidal action against SETVI; conditions: visual assessment about 3 weeks after treatment
# In short: as §2
# [17] = system: Abutilon theophrasti; test: Pre-emergence herbicidal action against ABUTH; conditions: visual score after 3 weeks vs untreated controls
# In short: as §1
# [18] = system: Stellaria media; test: Post-emergence herbicidal action against STEME; conditions: visual assessment about 3 weeks after treatment
# Procedure: Seeds of monocotyledonous and dicotyledonous weed and crop plants are laid out in sandy loam soil in wood-fiber pots, covered with soil and cultivated in a greenhouse under good growth conditions. 2 to 3 weeks after sowing, the test plants are treated at the one-leaf stage. The compounds of the invention, formulated in the form of wettable powders (WP) or as emulsion concentrates (EC), are then sprayed onto the green parts of the plants in the form of an aqueous suspension or emulsion at a water application rate equivalent to 600 to 800 l/ha, with addition of 0.2% wetting agent. After the test plants have been left to stand in the greenhouse under optimal growth conditions for about 3 weeks, the action of the preparations is assessed visually in comparison to untreated controls (herbicidal action in percent (%): 100% activity=the plants have died, 0% activity=like control plants). […] The tables below illustrate, in an illustrative manner, the post-emergence herbicidal action of the compounds of the invention, the herbicidal activity being stated in percent.
# [19] = system: Viola tricolor; test: Pre-emergence herbicidal action against VIOTR
# In short: as §1
# [20] = system: Veronica persica; test: Pre-emergence herbicidal action against VERPE; conditions: 320 g/ha
# In short: as §1
# [21] = system: Avena fatua; test: Pre-emergence herbicidal action against AVEFA; conditions: visual score after 3 weeks vs untreated controls
# In short: as §1
# [22] = system: Echinochloa crus-galli; test: Post-emergence herbicidal action against ECHCG; conditions: visual assessment about 3 weeks after treatment
# In short: as §2
# [23] = system: Pharbitis purpurea; test: Post-emergence herbicidal action against PHBPU; conditions: visual assessment about 3 weeks after treatment
# In short: as §2
# [24] = system: Viola tricolor; test: Post-emergence herbicidal action against VIOTR
# In short: as §2
compound,measurement,setting,value
CCCn1nnnc1NC(=O)c1ccc(C(F)(F)F)c(C(=O)N(C)CC2CC2)c1Cl [Example 3-126],Pre-emergence action against AMARE,[1]; 20 g/ha,90%
same,Pre-emergence action against AMARE,[1]; 80 g/ha,100%
same,Pre-emergence action against AMARE,[1]; 320 g/ha,100%
same,Post-emergence action against ALOMY,[2]; 80 g/ha,80%
same,Post-emergence action against AVEFA in %,[3]; 20 g/ha,90%
same,Post-emergence action against AVEFA in %,[3]; 80 g/ha,100%
same,Pre-emergence action against CYPES,[4]; 80 g/ha,100%
same,Pre-emergence action against CYPES,[4]; 320 g/ha,100%
same,Pre-emergence action against STEME,[5]; 20 g/ha,80%
same,Pre-emergence action against STEME,[5]; 80 g/ha,80%
same,Pre-emergence action against STEME,[5]; 320 g/ha,100%
same,Post-emergence action against AMARE in %,[6]; 5 g/ha,100%
same,Post-emergence action against AMARE in %,[6]; 20 g/ha,100%
same,Post-emergence action against AMARE in %,[6]; 80 g/ha,100%
same,Pre-emergence action against ECHCG,[7]; 320 g/ha,80%
same,Post-emergence action against ABUTH,[8]; 5 g/ha,100%
same,Post-emergence action against ABUTH,[8]; 20 g/ha,100%
same,Post-emergence action against ABUTH,[8]; 80 g/ha,100%
same,Post-emergence action against VERPE in %,[9]; 80 g/ha,90%
same,Pre-emergence action against PHBPU,[10]; 320 g/ha,80%
same,Pre-emergence action against ALOMY,[11]; 320 g/ha,90%
same,Pre-emergence action against MATIN,[12]; 80 g/ha,90%
same,Pre-emergence action against MATIN,[12]; 320 g/ha,100%
same,Pre-emergence action against LOLRI,[13]; 320 g/ha,80%
same,Post-emergence action against MATIN in %,[14]; 5 g/ha,80%
same,Post-emergence action against MATIN in %,[14]; 20 g/ha,90%
same,Post-emergence action against MATIN in %,[14]; 80 g/ha,100%
same,Pre-emergence action against SETVI,[15]; 80 g/ha,80%
same,Pre-emergence action against SETVI,[15]; 320 g/ha,100%
same,Post-emergence action against SETVI in %,[16]; 20 g/ha,80%
same,Post-emergence action against SETVI in %,[16]; 80 g/ha,100%
same,Pre-emergence action against ABUTH,[17]; 20 g/ha,100%
same,Pre-emergence action against ABUTH,[17]; 80 g/ha,100%
same,Pre-emergence action against ABUTH,[17]; Dosage column 320 g/ha (heading prints 3200 g/ha),100%
same,Post-emergence action against STEME in %,[18]; 5 g/ha,100%
same,Post-emergence action against STEME in %,[18]; 20 g/ha,100%
same,Post-emergence action against STEME in %,[18]; 80 g/ha,100%
same,Pre-emergence action against VIOTR,[19]; 80 g/ha,90%
same,Pre-emergence action against VIOTR,[19]; 320 g/ha,100%
same,Pre-emergence action against VERPE,[20],90%
same,Pre-emergence action against AVEFA,[21]; 320 g/ha,100%
same,Post-emergence action against ECHCG in %,[22]; 5 g/ha,90%
same,Post-emergence action against ECHCG in %,[22]; 20 g/ha,100%
same,Post-emergence action against ECHCG in %,[22]; 80 g/ha,100%
same,Post-emergence action against PHBPU in %,[23]; 20 g/ha,90%
same,Post-emergence action against PHBPU in %,[23]; 80 g/ha,100%
same,Post-emergence action against VIOTR in %,[24]; 5 g/ha,80%
same,Post-emergence action against VIOTR in %,[24]; 20 g/ha,90%
same,Post-emergence action against VIOTR in %,[24]; 80 g/ha,100%
CCN(C(=O)c1c(C(F)F)ccc(C(=O)Nc2nnnn2C)c1Cl)C1CC1 [Example 1-167],Pre-emergence action against AMARE,[1]; 20 g/ha,100%
same,Pre-emergence action against AMARE,[1]; 80 g/ha,100%
same,Post-emergence action against ALOMY,[2]; 5 g/ha,90%
same,Post-emergence action against ALOMY,[2]; 20 g/ha,90%
same,Post-emergence action against AMARE in %,[6]; 5 g/ha,100%
same,Post-emergence action against AMARE in %,[6]; 20 g/ha,100%
same,Pre-emergence action against ECHCG,[7]; 80 g/ha,90%
same,Post-emergence action against ABUTH,[8]; 5 g/ha,90%
same,Post-emergence action against ABUTH,[8]; 20 g/ha,90%
same,Post-emergence action against VERPE in %,[9]; 20 g/ha,90%
same,Pre-emergence action against PHBPU,[10]; 80 g/ha,80%
same,Pre-emergence action against ALOMY,[11]; 80 g/ha,100%
same,Pre-emergence action against MATIN,[12]; 20 g/ha,80%
same,Pre-emergence action against MATIN,[12]; 80 g/ha,100%
same,Pre-emergence action against LOLRI,[13]; 80 g/ha,90%
same,Post-emergence action against MATIN in %,[14]; 20 g/ha,80%
same,Pre-emergence action against SETVI,[15]; 80 g/ha,100%
same,Post-emergence action against SETVI in %,[16]; 20 g/ha,100%
same,Pre-emergence action against ABUTH,[17]; 20 g/ha,100%
same,Pre-emergence action against ABUTH,[17]; 80 g/ha,100%
same,Pre-emergence action against VIOTR,[19]; 20 g/ha,90%
same,Pre-emergence action against VIOTR,[19]; 80 g/ha,100%
same,Pre-emergence action against AVEFA,[21]; 80 g/ha,90%
same,Post-emergence action against ECHCG in %,[22]; 20 g/ha,80%
same,Post-emergence action against VIOTR in %,[24]; 5 g/ha,80%
same,Post-emergence action against VIOTR in %,[24]; 20 g/ha,90%
